# Measurements: patent US20130266636A1, “METHODS FOR BLOCKING CELL PROLIFERATION AND TREATING DISEASES AND CONDITIONS RESPONSIVE TO CELL GROWTH INHIBITION” (THE REGENTS OF THE UNIVERSITY OF CALIFORNIA, priority 2010, published 2013)
# Entries after “also recorded” stand apart in the source; their conditions may differ.
# Tests used:
# phospho-S338 CRAF = molecular target: T1, phospho-S338 CRAF (Mus musculus, UniProt Q99N57); test: Phospho-S338 CRAF staining in orthotopic R40P murine pancreatic cancer tissues; type: in vivo, mice; conditions: systemic KG5, 3 days
# T1 construct: immunofluorescent staining of phospho-S338 CRAF in orthotopic pancreatic cancer tissues untreated or systemically treated with KG5; from tissue; host or cells: orthotopic R40P murine pancreatic tumours in mice
# From the text: FIG. 5 illustrates the effect of KG5 on orthotopic R40P murine pancreatic tumor cells after three days, as further discussed in Example 1, below.
# FIG. 5 illustrates an immunofluorescent staining of phospho-S338 CRAF in orthotopic pancreatic cancer tissues untreated or systemically treated with KG5 for 3 days.
# XPA-1 cells = test: Cell cycle analysis, bright field and confocal microscopy of XPA-1 cells; type: cell-based, human
# Protocol: FIG. 38. […] FIG. 38(a) Bright field images (scale bar, 20 μm), cell cycle analysis and confocal microscopy images (scale bar, 10 μm, laminB in red and DNA in blue) of XPA-1 cells treated for 20 hours with the allosteric RAF inhibitor KG5, the ATP-competitive inhibitor Sorafenib, the MEK inhibitor PD0325901, the control compound KG1 at 5 μM or paclitaxel at 200 nM. Cells were harvested after 20 hours and the cell cycle stage was determined by flow cytometry and confocal microscopy. White arrows indicate cells arrested at pro-metaphase. Scale bars, 10 μm. FIG. 38(b) Representative confocal microscopy images of untreated XPA-1 tumor cells undergoing mitosis (left image) and XPA-1 cell arrested with KG5 at pro-metaphase (right image). Cells were stained with α-tubulin in red and DNA in blue. Scale bar, 10 μm. FIG. 38(c) XPA-1 cells transfected with a vector control or active MEK were treated with 1 μM KG5 for 20 hours or left untreated and the G2/M population was quantified by flow cytometry. Error bars represent s.d. (n=3); * two tailed p value=0.00063 using a Mann Whitney U test. FIG. 38(d) Immunoblot analysis of XPA-1 cells untreated or treated with 1 μM KG5 for 18 hours. Data are representative of four independent experiments. […] Error bars represent s.d. (n=3); * two tailed p value=0.010 using a Mann Whitney U test. Inset, Immunoblot analysis of HCT-116 cells untreated or treated with 1 μM KG5 for 18 hours.
# FIG. 39. […] FIG. 39 graphically illustrates cell cycle analysis of XPA-1 cells treated with the allosteric RAF inhibitor KG5, the microtubule stabilizer paclitaxel, or the ATP-competitive RAF inhibitors sorafenib, L-779450, GW 5074, and ZM-336372. Cells were harvested after 6, 18, 24, 48 and 72 hours and the percentages of cells in G2/M and SubG1 were determined by flow cytometry. Data are representative of three independent experiments.
# Cell cycle analysis was performed by flow cytometry following propidium iodide staining. Briefly, cells were harvested, fixed with ice cold methanol, treated for 45 min with 10 μg/ml of RNase and resuspended in PBS containing 10 μg/ml of PI, and analyzed by flow cytometry. Cell cycle analysis was performed in cells treated for 18 hours with the allosteric RAF inhibitor KG5, the ATP-competitive RAF inhibitors: sorafenib, L-779450, GW5074, and ZM-336372, the MEK inhibitor (PD0325901) at […] concentration or paclitaxel at 100 nM.
# Plk1 = Plk1 localization, confocal microscopy and CenpF immunoprecipitates; type: cell-based, human
# From the text: FIG. 46. CRAF regulates Plk1 activity and localization. FIG. 46(a) Plk1 kinase activity assay performed in WT and CRAF−/− MEFs. Error bars represent s.d. (n=3); * two tailed p value=0.029 using Mann Whitney U test. FIG. 46(b) Immunoblot analysis of XPA-1 cells asynchronous or arrested in mitosis by treatment with KG5, nocodazole or paclitaxel (referred to as Ncdzl and Ptxl respectively). pPlk1 refers to phospho-T210 Plk1 and pHH3 refers to phospho-Histone H3. Data are representative of three independent experiments. FIG. 46(c) Plk1 kinase activity assay performed in HCT-116 cells treated with nocodazole or nocodazole and KG5. Error bars represent s.d. (n=2); * two tailed p value=0.002 using Mann Whitney U test. FIG. 46(d) Immunoblot analysis of CenpF immunoprecipitates from HCT-116 cells untreated or treated with KG5. Data are representative of three independent experiments. FIG. 46(e) Confocal microscopy images of XPA-1 cell at prophase (upper panel), pro-metaphase control untreated (middle panel) or treated with KG5 (lower panel). Cells were stained for phospho-T210 Plk1 (in green), a tubulin (in red) and DNA (TOPRO-3™ in blue). Thick white arrows indicate localization of pPlk1 at the mitotic spindle pole and narrow white arrows indicate localization of pPlk1 at the kinetochores. Scale bar, 10 p.m. […]
structure (smiles),measurement,setting,value
CSc1nc(N)cc(Oc2ccc(-c3nnc(Nc4cccc(C(F)(F)F)c4)[nH]3)cc2)n1 [KG5],phospho-S338 CRAF in orthotopic pancreatic cancer tissues,phospho-S338 CRAF,inhibits serine 338 phosphorylation of CRAF
same,rescue of KG5 effect on cell proliferation by ectopic active MEK (G2/M population),"XPA-1 cells; XPA-1 cells transfected with active MEK, 1 μM KG5, 20 hours",failed to rescue
same,arrest at pro-metaphase (confocal microscopy),"XPA-1 cells; XPA-1 cells, 20 hours",arrests cells at pro-metaphase
same,cell cycle arrest in G2/M (flow cytometry),"XPA-1 cells; XPA-1 cells, 20 hours",arrested in G2/M; also recorded: arrests cells in G2/M; also recorded: induces a G2/M arrest followed by cell death
same,cell appearance and mitotic function (bright field images),"XPA-1 cells; XPA-1 cells, 20 hours, same concentration (5 μM, FIG. 38a)",look arrested in mitosis; also recorded: rounded and arrested in mitosis
same,Plk1 localization to the spindle pole,Plk1,no effect on Plk1 localization to the spindle pole
same,accumulation of active Plk1 at the kinetochores,Plk1,prevented the subsequent accumulation of active Plk1 at the kinetochores
